The subject of data set [1] is U138-MG glioblastoma cell line. As to the kind of experiment: MTT cell proliferation assay, U138-MG. The data set is classed as cell-based. To be noted: for activity at 10 µM / inhibition at 10 µM / IC50: Homo sapiens; for activity at 10 µM: compound 10 μM, 48 h, read-out: Cell Proliferation ± Std dev. (%) U138; for activity at 10 µM / IC50: MTT; for inhibition at 10 µM: read-out: cell inhibition percentage (activity); for IC50: 0–160 μM. Here is the method: (§1) U87-MG (HTB-16) and U138-MG (HTB-14) lines were purchased from ATCC. The cells were cultured in DMEM-HG Medium (41966-029, Gibco, Grand Island, NE, USA) and supplemented with 10% fetal bovine serum (FBS, 10500-064, Gibco) and 1% Penicillin–Streptomycin (P/S, 15140-122, Gibco). After 24 h of seeding cells, all compounds dissolved in 0.4% dimethyl sulfoxide (DMSO, A3672-0250, AppliChem, Darmstadt, Germany) were treated in the cells.
The proliferation effects of the drug candidates on the U87-MG and U138-MG cell lines were tested using the MTT (3-(4,5-dimethylthiazol-2-yl)-2,5-diphenyltetrazolium bromide) assay. A total of 7 × 10^3 cells per well of both U87-MG and U138-MG cells were seeded into a 96-well plate in triplicate for the assay. […] After the incubation period, 10 μL of MTT solution (5 mg/mL in PBS) was added to each well. The MTT solution was aspirated from the wells after 2 h. Then, 100 μL of DMSO was added and mixed to dissolve the formazan crystals. Cell proliferation was analysed by measuring the absorbance of the dissolved formazan at a wavelength of 570 nm using a microplate reader (Epoch, San Jose, CA, USA). […] Each experiment was carried out in triplicate to ensure reliability and statistical significance.
(In general: Tetrazolium dyes change colour on reduction, which living cells bring about.)

Data set [2] is described as follows: PAMPA, GI-mimicking membrane. To be noted: class relative to high and low permeability controls. The data set is classed as in vitro ADME. Here is the method:
(§2) The permeability of the synthesised compounds was evaluated using the parallel artificial membrane permeability assay (PAMPA) to estimate their ability to cross biological membrane mimics of both the gastrointestinal (GI) membrane and the blood–brain barrier (BBB).
(§3) The PAMPA assay (BioAssay System, Hayward, CA 94545, USA) has been used for testing the permeability rates of drugs through the BBB-mimicking membrane. […] The permeability assay was performed for 18 h in a 37 °C incubator.
In general terms: PAMPA measures passive passage across an artificial lipid membrane.

The subject of data set [3] is U87-MG glioblastoma cell line. As to the kind of experiment: MTT cell proliferation assay, U87-MG. It is filed as cell-based. The conditions noted are these: for activity at 10 µM: compound 10 μM, 48 h, read-out: Cell Proliferation ± Std dev. (%) U87; for IC50: 0–160 μM. As to the method: as §1
The proliferation effects of the drug candidates on the U87-MG and U138-MG cell lines were tested using the MTT (3-(4,5-dimethylthiazol-2-yl)-2,5-diphenyltetrazolium bromide) assay. A total of 7 × 10^3 cells per well of both U87-MG and U138-MG cells were seeded into a 96-well plate in triplicate for the assay. After 24 h, each compound was added at a dose of 10 μM and incubated for 48 h. After the incubation period, 10 μL of MTT solution (5 mg/mL in PBS) was added to each well. The MTT solution was aspirated from the wells after 2 h. Then, 100 μL of DMSO was added and mixed to dissolve the formazan crystals. Cell proliferation was analysed by measuring the absorbance of the dissolved formazan at a wavelength of 570 nm using a microplate reader (Epoch, San Jose, CA, USA). […] Each experiment was carried out in triplicate to ensure reliability and statistical significance.

Data set [4] in a line: PAMPA, BBB-mimicking membrane. The data set is classed as in vitro ADME. To be noted: 500 μM, 18 h, 37 °C. As to the method:
as §2, §3

The mark [5] stands for this setting: equals 100 minus cell proliferation of Table 1 (10 μM, 48 h).

SMILES strings stand for the structures.

`CN1C(=O)/C(=N\NC(=O)COc2ccc3c(c2)CCC(=O)N3)c2cc(F)ccc21` [4l, (Z)-N′-(5-Fluoro-1-Methyl-2-Oxoindolin-3-Ylidene)-2-((2-Oxo-1,2,3,4-Tetrahydroquinolin-6-Yl)Oxy)Acetohydrazide]: in data set [1], the activity at 10 µM was found to be 73 ± 3.6%.
As to `O=C(COc1ccc2c(c1)CCC(=O)N2)N/N=C/c1ccc(F)cc1` [4s, (E)-N′-(4-Fluorobenzylidene)-2-((2-Oxo-1,2,3,4-Tetrahydroquinolin-6-Yl)Oxy)Acetohydrazide], in data set [2], the “Permeability through GI-mimicking membrane (class in words)” value is recorded as “high permeability”.
One may read the inhibition as the drop in the measured response relative to a control, in per cent. As for `O=C(COc1ccc2c(c1)CCC(=O)N2)N/N=C/c1ccc(-c2ccc(Cl)cc2)cc1` [4w, (E)-N′-((4′-Chloro-[1,1′-Biphenyl]-4-Yl)Methylene)-2-((2-Oxo-1,2,3,4-Tetrahydroquinolin-6-Yl)Oxy)Acetohydrazide], the activity at 10 µM in data set [1] worked out at 80 ± 6.9%; in data set [3] (Homo sapiens, U-87 MG) it was 63 ± 2.5%. Moreover, the inhibition at 10 µM in data set [1] (setting [5]) turned out to be 20%.
The term IC50 denotes the concentration that gives 50% inhibition. Low readings indicate greater potency in that assay, high ones weaker potency in that assay. Take `Cc1[nH]c2ccccc2c1/C=N/NC(=O)COc1ccc2c(c1)CCC(=O)N2` [4g, (E)-N′-((2-Methyl-1H-Indol-3-Yl)Methylene)-2-((2-Oxo-1,2,3,4-Tetrahydroquinolin-6-Yl)Oxy)Acetohydrazide]: in data set [1], the IC50 was 9.2 µM.
Regarding `O=C(COc1ccc2c(c1)CCC(=O)N2)N/N=C/c1ccc(Cl)cc1` [4b, (E)-N′-(4-Chlorobenzylidene)-2-((2-Oxo-1,2,3,4-Tetrahydroquinolin-6-Yl) Oxy) Acetohydrazide], the inhibition at 10 µM in data set [1] (setting [5]) came to 40%.
`O=C(COc1ccc2c(c1)CCC(=O)N2)N/N=C/c1cnc(-c2ccc(Cl)cc2)nc1` [4q, (E)-N′-((2-(4-Chlorophenyl)Pyrimidin-5-Yl)Methylene)-2-((2-Oxo-1,2,3,4-Tetrahydroquinolin-6-Yl)Oxy)Acetohydrazide] displayed an IC50 in data set [1] of 8 µM. The activity at 10 µM turned out to be 39 ± 3% in data set [1] and 67 ± 4.9% in data set [3] (Homo sapiens, U-87 MG). In addition, in data set [1] (setting [5]), the inhibition at 10 µM worked out at 61%.
`O=C(COc1ccc2c(c1)CCC(=O)N2)N/N=C1\C(=O)Nc2ccc(F)cc21` [4m, (Z)-N′-(5-Fluoro-2-Oxoindolin-3-Ylidene)-2-((2-Oxo-1,2,3,4-Tetrahydroquinolin-6-Yl)Oxy)Acetohydrazide] returned an IC50 in data set [1] of 4.2 µM.
Consider `O=C(COc1ccc2c(c1)CCC(=O)N2)N/N=C/c1ccc(-c2ccccc2)cc1` [4v, (E)-N′-([1,1′-Biphenyl]-4-Ylmethylene)-2-((2-Oxo-1,2,3,4-Tetrahydroquinolin-6-Yl)Oxy)Acetohydrazide], for which, in data set [3] (Homo sapiens, U-87 MG), inhibition was half-maximal at 11.7 µM (IC50).
For the compound `O=C(COc1ccc2c(c1)CCC(=O)N2)N/N=C/c1ccccc1` [4j, (E)-N′-Benzylidene-2-((2-Oxo-1,2,3,4-Tetrahydroquinolin-6-Yl)Oxy)Acetohydrazide], in data set [4], the “Permeability through BBB-mimicking membrane (class in words)” value is given as “high permeability”.
For `O=C(COc1ccc2c(c1)CCC(=O)N2)N/N=C/c1cccc2ccccc12` [4u, (E)-N′-(Naphthalen-1-Ylmethylene)-2-((2-Oxo-1,2,3,4-Tetrahydroquinolin-6-Yl)Oxy)Acetohydrazide], half-maximal inhibition in data set [3] (Homo sapiens, U-87 MG) (IC50) was put at 7.96 µM.
`O=C(COc1ccc2c(c1)CCC(=O)N2)N/N=C1\C(=O)Nc2ccc([N+](=O)[O-])cc21` [4o, (Z)-N′-(5-Nitro-2-Oxoindolin-3-Ylidene)-2-((2-Oxo-1,2,3,4-Tetrahydroquinolin-6-Yl)Oxy)Acetohydrazide]: the “cell inhibition percentage (activity)” value in data set [1] (setting [5]) is listed as “moderate activity”.
`O=C(COc1ccc2c(c1)CCC(=O)N2)NN=Cc1cccs1` [4d, 2-((2-Oxo-1,2,3,4-Tetrahydroquinolin-6-Yl)Oxy)-N′-(Thiophen-2-Ylmethylene)Acetohydrazide]: the “Permeability through GI-mimicking membrane (class in words)” value in data set [2] is on record as “high permeability”.
For the compound `Cn1nnc2c(C(N)=O)ncn2c1=O` [TMZ, temozolomide, reference compound], the “Permeability through GI-mimicking membrane (class in words)” value in data set [2] is “lower permeability”. Also, in data set [1], the IC50 was found to be 93.1 µM and the activity at 10 µM was determined as 78 ± 5%. For the same compound, in data set [3] (Homo sapiens, U-87 MG), 92.9 µM corresponded to half-maximal inhibition (IC50) and the activity at 10 µM is 80 ± 5%. Besides, in data set [4], the “Permeability through BBB-mimicking membrane (class in words)” value is on record as “lower permeability”.
With `O=C(COc1ccc2c(c1)CCC(=O)N2)N/N=C/c1cccc(Oc2ccc(Cl)cc2)c1` [4t, (E)-N′-(3-(4-Chlorophenoxy)Benzylidene)-2-((2-Oxo-1,2,3,4-Tetrahydroquinolin-6-Yl)Oxy)Acetohydrazide], the activity at 10 µM came out at 65 ± 3.5% in data set [1] and 50 ± 3.2% in data set [3] (Homo sapiens, U-87 MG). Moreover, the IC50 in data set [3] was found to be 10.5 µM; in data set [3] (Homo sapiens, U-87 MG), 10.7 µM. Also, in data set [4], the “Permeability through BBB-mimicking membrane (class in words)” value is “high permeability”.
In the case of `CCCc1ccc(/C=N/NC(=O)COc2ccc3c(c2)CCC(=O)N3)cc1` [4h, (E)-2-((2-Oxo-1,2,3,4-Tetrahydroquinolin-6-Yl)Oxy)-N′-(4-Propylbenzylidene)Acetohydrazide], the activity at 10 µM in data set [1] is 100 ± 2.3%. Besides, the inhibition at 10 µM in data set [1] (setting [5]) came out at 0%. In addition, in data set [4], the “Permeability through BBB-mimicking membrane (class in words)” value was “high permeability”.

(Values after article PMC11859309, “Design, Synthesis, and Computational Evaluation of 3,4-Dihydroquinolin-2(1H)-One Analogues as Potential VEGFR2 Inhibitors in Glioblastoma Multiforme” (Pharmaceuticals, 2025).)
